Results: patent publication US10626349B2, “Cleavable surfactants” (PROMEGA CORPORATION, priority 2007, dated 2020)

Tests used:
[1] = Solubility of the surfactant; conditions: for solubility in aqueous solutions (concentration dissolved to): aqueous solution
[2] = target: T1, Myoglobin from horse heart digested with trypsin (Equus caballus, UniProt P68082); test: Myoglobin/Trypsin digest, HPLC peak area versus RapiGest control; assay type: biochemical; conditions: 0.01% surfactant, trypsin 50:1, 20 minutes at 37° C.; ratio to RapiGest control, >1 = more digestion
T1 construct: Myoglobin from horse heart; from tissue; host or cells: horse heart
T1 sequence (P68082 2-154 limits assumed): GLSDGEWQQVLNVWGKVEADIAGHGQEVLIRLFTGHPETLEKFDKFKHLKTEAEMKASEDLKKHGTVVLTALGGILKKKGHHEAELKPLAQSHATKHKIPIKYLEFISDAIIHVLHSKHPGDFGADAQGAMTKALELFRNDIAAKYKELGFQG
Protocol: Myoglobin from horse heart (typically 25 μs) was digested with trypsin (Promega) at a 50:1 ratio in a volume of 125 μL (typical) of 50 mM Ammonium bicarbonate for 20 minutes at 37° C. with 0.01% RapiGest™ surfactant or 0.01% of the indicated compound of the invention (upper and lower chromatograms, respectively). TFA was added to 0.5-2% and the mixtures were incubated at 37° C. or 65° C. for 20 or 30 minutes. Degraded surfactant was removed by centrifugation at 14,000×g for 5 minutes. HPLC analysis was performed on a 25-50 μL reaction sample using an HP1050 LC system with an Agilent Sorbax SB-C18 column (3.0×100 mm, 3.5 micron) and a gradient of 0.1% TFA (97.5% initial) and Acetonitrile, 0.01% TFA (55% final condition followed by a 100% wash step) and a flow rate of 0.75 mL/min. Peptides were detected at 214 and 280 nm.
(§1) For each compound numbered below in Example 12, the rate of enhanced digestion was determined from the ratio of the surfactant peak area (surfactant # Pk. Area) to the Rapigest™ surfactant peak area (RG Pk area). Peak area was determined as the sum of all peaks integrated from 8-22 minutes.

[3] = Hydrolytic stability in 50 mM ammonium bicarbonate (reverse-phase HPLC); assay type: physicochemical
Protocol: Hydrolytic stability was measured by monitoring the change in retention time of the intact surfactant by reverse-phase HPLC. The ½-life is defined as the time required to reach 50% degradation.

[4] = target: T2, Bacteriorhodopsin digested with chymotrypsin (Halobacterium salinarum, UniProt P02945); test: Bacteriorhodopsin/Chymotrypsin digest, HPLC peak area versus RapiGest control; assay type: biochemical; conditions: 0.025% surfactant
T2 sequence (P02945 14-261 limits assumed): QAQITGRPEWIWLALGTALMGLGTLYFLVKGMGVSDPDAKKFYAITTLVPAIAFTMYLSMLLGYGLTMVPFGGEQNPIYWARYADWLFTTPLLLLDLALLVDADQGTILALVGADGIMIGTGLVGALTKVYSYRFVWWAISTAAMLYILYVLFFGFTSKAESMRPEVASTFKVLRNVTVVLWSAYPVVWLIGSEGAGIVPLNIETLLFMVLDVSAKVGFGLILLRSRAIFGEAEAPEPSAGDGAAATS
Protocol: Bacteriorhodopsin (25 μs) was heated with 0.025% Rapigest™ surfactant or the indicated compound of the invention for 5 minutes at 95° C., then digested with chymotrypsin (Sigma) at a 10:1 ratio in 125 μL 50 mM Ammonium bicarbonate for 1 hour at 37° C. After one hour TFA was added to 0.5-2% and the mixtures were incubated at 37° C. or 65° C. for 20 or 30 minutes. Degraded surfactant was removed by centrifugation at 14,000×g for 5 minutes. An aliquot of 50-100 μL of digested protein was analyzed by HPLC as described above.
Compound 3211, 3212, 3224 and Rapigest™ surfactant control for FIG. 13C reactions: Bacteriorhodopsin (25 μs) was solubilized with 0.025% compound of interest for 1-2 minutes at room temperature, then digested with chymotrypsin (Sigma) at a 10:1 ratio in 125 μL 50 mM Ammonium bicarbonate for 1 hour at 37° C. After one hour TFA was added to 0.5-2% and the mixtures were incubated at 37° C. or 65° C. for 20 or 30 minutes. Degraded surfactant was removed by centrifugation at 14,000×g for 5 minutes. An aliquot of 50-100 μL of digested protein was analyzed by HPLC as described above.
as §1

[5] = Acid and thermal degradation of the surfactant; conditions: for degradation after overnight incubation (in words): concentration not given; for thermolability (in words): 3266: 5 minutes at 95° C.
[6] = surfactant conc. 0.0025% in 50 mM ammonium bicarbonate
[7] = surfactant conc. 0.025% in 50 mM ammonium bicarbonate
[8] = BR heated (boiled) with surfactant 5 minutes at 95° C., chymotrypsin 10:1, 1 hour at 37° C., ratio to RapiGest control
[9] = 0.01% solution, 37° C. where stated

SMILES | solubility in aqueous solutions (concentration dissolved to) [1] [%] | surfactant Pk area/RG Pk area, Myoglobin/Trypsin digest [2] | surfactant Pk area/RG Pk area, Bacteriorhodopsin/Chymotrypsin digest [4, 8] | further results
CCCCCCCCCCCCC(OC(=O)NCCCS(=O)(=O)O)c1ccco1 (stereo not shown) [Compound 3224] | 0.25 | 1.3 | – | solubility after adding ACN ([1]; ACN added to 20%): 2%; ½-life [3, 6]: 1.3 h; ½-life [3, 7]: 8.3 h; ½-life ([3]; surfactant conc. 0.10% in 50 mM ammonium bicarbonate): 23 h; ½-life ([3]; surfactant conc. 0.25% in 50 mM ammonium bicarbonate): 22 h; surfactant Pk area/RG Pk area, Bacteriorhodopsin/Chymotrypsin digest ([4]; BR solubilized at room temperature (not boiled), RapiGest control boiled): 0.74
CCCCCCCCCOCC(C)(C)OC(=O)NCCCS(=O)(=O)O [Compound 3205] | 0.5 | 0.3 | 0.45 | degradation after overnight incubation (in words) [5]: No degradation was observed even after overnight incubation
CCCCCCCCCCC1COC(c2cccc(OCCCS(=O)(=O)[O-])c2)O1.[Na+] (stereo not shown) [Compound 3228] | 1 | 1.4 | 1.2 | degradation rate (grade in words) [5]: low
CCCCCCCCCSCC(C)(C)OC(=O)NCCCS(=O)(=O)O [Compound 3206] | 0.5 | 0.26 | 0.8 | degradation rate (grade in words) [5]: moderate
CCCCCCCCCCCC(C)(C)OC(=O)Nc1ccc(N(CCCCS(=O)(=O)[O-])CCCCS(=O)(=O)O)cc1.[Na+] [Compound 3194] | 0.5 | 0.72 | 1.1 | degradation after overnight incubation (in words) [5]: No degradation was observed even after overnight incubation
CCCCCCOc1ccc(C(OCCCS(=O)(=O)[O-])(c2ccccc2)c2ccccc2)cc1.[Na+] [Compound 3202] | ~0.01 | 1.1 | 0.6 | time to degradation of 0.01% solution [5, 9]: ≤ 30 min
CCCCCCCCCCCCCCC(OC(=O)NCCCS(=O)(=O)[O-])c1ccc(OC)cc1.[Na+] (stereo not shown) [Compound 3213] | 0.025 | 0.8 | 1.3 | ½-life [3, 6]: 62 h; ½-life [3, 7]: 128 h
CCCCCCCCCCC(OC(=O)NCCCS(=O)(=O)O)c1ccc(C(F)(F)F)cc1 (stereo not shown) [Compound 3200] | ~0.01 | 0.7 | 0.8 | degradation after overnight incubation (in words) [5]: No degradation was observed even after overnight incubation
CCCCCCCCCCC(OC(=O)NCCCS(=O)(=O)O)c1cc(OC)cc(OC)c1 (stereo not shown) [Compound 3236] | 1 | 1.4 | 0.71 | degradation by acid (0.5% TFA) or by heat (boiling), in words ([5]; 3236: 0.1% solution in 0.5% TFA 30 minutes at 37° C. or 5 minutes of boiling without TFA): no degradation was observed
CCCCCCCCCCCC(C)(C)OC(=O)NCC(O)CS(=O)(=O)[O-].[Na+] (stereo not shown) [Compound 3192] | 0.5 | 1.3 | 1.1 | degradation of 0.01% solution (in words) [5, 9]: degraded only after overnight incubation
CCCCCCCCCCOc1ccc(C(OCCN(CCCCS(=O)(=O)[O-])CCCCS(=O)(=O)[O-])(c2ccccc2)c2ccc(OC)cc2)cc1.[Na+].[Na+] (stereo not shown) [Compound 3220] | 1 | 0.2 | 0.8 | time to degradation in 0.5% TFA ([5]; 37° C. where stated, 0.1% solution for 3220 and 3266): ≤ 15 min; thermolability (in words) [5]: moderate thermolability
CCCCCCCCCCC(OC(=O)NCCCS(=O)(=O)O)c1ccccc1OC (stereo not shown) [Compound 3237] | 0.5 | 1.4 | 1 | acid-lability (in words) ([5]; 0.5% TFA at 37° C. where stated (3237: 30 minutes), 3271 by TLC analysis): Moderate degradation was observed
CCCCCCCCCCCC(C)(C)OC(=O)SCCS(=O)(=O)O [Compound 3189] | 0.5 | 1.1 | 0.6 | degradation of 0.01% solution (in words) [5, 9]: degraded only after overnight incubation
CCCCCCCCCCOc1ccc(C(OCCN(CCCCS(=O)(=O)[O-])CCCCS(=O)(=O)[O-])(c2ccccc2)c2ccccc2)cc1.[Na+].[Na+] [Compound 3215] | 1 | 0.56 | 1.2 | time to degradation in 0.5% TFA ([5]; 0.1% solution): 60 min; thermolability (in words) [5]: moderate thermolability
CCCCCCCC(C)(C)OC(=O)NCC(O)CS(=O)(=O)O (stereo not shown) [Compound 3204] | 0.5 | 0.87 | 0.55 | degradation rate (grade in words) [5]: moderate
